Laboratory results from patent US20060069132A1, “Azolecarboxamide herbicides” (priority 2004, published 2006).

Legend:
barnyardgrass [1] = assay: Test A pre-/postemergence herbicide test; type: in vivo, Echinochloa crus-galli
How it was run: (§1)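 Visual injury scores on a 0–100 scale (100 = complete control) taken about ten days post-treatment in greenhouse against untreated controls; dash means no result. Treatments: preemergence soil spray and postemergence spray to runoff on one- to two-leaf plants 2 to 10 cm tall, surfactant-containing formulation.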

large crabgrass [2] = assay: Test A pre-/postemergence herbicide test; type: in vivo, Digitaria sanguinalis
How it was run: as §1

giant foxtail [3] = assay: Test A pre-/postemergence herbicide test; type: in vivo, Setaria faberi
How it was run: as §1

morningglory [4] = assay: Test A pre-/postemergence herbicide test; type: in vivo, Ipomoea spp.
How it was run: as §1

redroot pigweed = assay: Test A pre-/postemergence herbicide test; type: in vivo, Amaranthus retroflexus
How it was run: as §1

velvetleaf [5] = assay: Test A pre-/postemergence herbicide test; type: in vivo, Abutilon theophrasti
How it was run: as §1

barnyardgrass [6] = assay: Test B pre-/postemergence herbicide test; type: in vivo, Echinochloa crus-galli; conditions: for Barnyardgrass plant response rating: postemergence, visual rating, scale 0 (no effect) to 100 (complete control)
How it was run: (§2)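 Flooded paddy rice and barnyardgrass were treated at the 2-leaf stage; upland plantings received compound either on sown seed or on 1- to 4-leaf seedlings. All were kept 13–15 days in a greenhouse and scored visually, 0–100, relative to untreated plants.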

Surinam grass = assay: Test B pre-/postemergence herbicide test; type: in vivo, Urochloa decumbens; conditions: for Surinam Grass plant response rating: postemergence, visual rating, scale 0 (no effect) to 100 (complete control)
How it was run: (§3)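 Plants compared with untreated controls 13–15 days post-treatment and given a visual 0–100 injury score. Applications: preemergence to seeds; postemergence at 1- to 4-leaf (2–18 cm); paddy species flooded, 2-leaf stage. Vehicle non-phytotoxic, surfactant included.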

cocklebur = assay: Test B pre-/postemergence herbicide test; type: in vivo, Xanthium strumarium; conditions: for Cocklebur plant response rating: postemergence, visual rating, scale 0 (no effect) to 100 (complete control)
How it was run: as §2

corn = assay: Test B pre-/postemergence herbicide test; type: in vivo, Zea mays; conditions: for Corn plant response rating: postemergence, visual rating, scale 0 (no effect) to 100 (complete control)
How it was run: as §3

large crabgrass [7] = assay: Test B pre-/postemergence herbicide test; type: in vivo, Digitaria sanguinalis; conditions: for Crabgrass, Large plant response rating: postemergence, visual rating, scale 0 (no effect) to 100 (complete control)
How it was run: as §3

giant foxtail [8] = assay: Test B pre-/postemergence herbicide test; type: in vivo, Setaria faberi; conditions: for Foxtail, Giant plant response rating: postemergence, visual rating, scale 0 (no effect) to 100 (complete control)
How it was run: as §3

lambsquarters = assay: Test B pre-/postemergence herbicide test; type: in vivo, Chenopodium album; conditions: for Lambsquarters plant response rating: postemergence, visual rating, scale 0 (no effect) to 100 (complete control)
How it was run: as §3

morningglory [9] = assay: Test B pre-/postemergence herbicide test; type: in vivo, Ipomoea coccinea; conditions: for Morningglory plant response rating: postemergence, visual rating, scale 0 (no effect) to 100 (complete control)
How it was run: as §2

pigweed = assay: Test B pre-/postemergence herbicide test; type: in vivo, Amaranthus retroflexus; conditions: for Pigweed plant response rating: postemergence, visual rating, scale 0 (no effect) to 100 (complete control)
How it was run: as §3

rice [10] = assay: Test B pre-/postemergence herbicide test; type: in vivo, Oryza sativa; conditions: preemergence
How it was run: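 Greenhouse pot assay with simultaneous preemergence (treated seed) and postemergence (2–18 cm seedlings) applications of surfactant-containing, non-phytotoxic solvent formulations. Response scored visually 13–15 days later on a 0–100 scale, 100 meaning complete control.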

velvetleaf [11] = assay: Test B pre-/postemergence herbicide test; type: in vivo, Abutilon theophrasti; conditions: for Velvetleaf plant response rating: postemergence, visual rating, scale 0 (no effect) to 100 (complete control)
How it was run: as §3

blackgrass = assay: Test B postemergence herbicide test; type: in vivo, Alopecurus myosuroides; conditions: postemergence, visual rating, scale 0 (no effect) to 100 (complete control)
How it was run: (§4)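 After treating 2-leaf paddy plants or 2–18 cm postemergence plants (1 to 4 leaves) with formulated chemical, researchers kept them in a greenhouse for 13–15 days. Effects were judged visually versus controls: 0 indicates none, 100 total control.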

wheat = assay: Test B postemergence herbicide test; type: in vivo, Triticum aestivum; set-up: key to Wheat plant response rating: 0 = no effect, 100 = complete control; conditions: postemergence, visual rating, scale 0 (no effect) to 100 (complete control)
How it was run: as §4

wild oat = assay: Test B postemergence herbicide test; type: in vivo, Avena fatua; conditions: postemergence, visual rating, scale 0 (no effect) to 100 (complete control)
How it was run: as §4

rice [12] = assay: Test B flooded paddy test; type: in vivo, Oryza sativa; conditions: 1000 g ai/ha, visual rating, scale 0 to 100 (0 no effect, 100 complete control), 13 to 15 days
How it was run: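 Formulated test chemicals went onto postemergence plants measuring 2 to 18 cm, at one to four leaves. For the paddy assay, species had reached two leaves. Scoring took place 13–15 days later by eye, relative to untreated plants, using 0 for no effect up to 100 for full control.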

[13] = test system: small flower umbrella sedge; assay: Test B flooded paddy test; type: in vivo, Cyperus difformis; conditions: 1000 g ai/ha, visual rating, scale 0 to 100 (0 no effect, 100 complete control), 13 to 15 days
How it was run: as §4

ducksalad = assay: Test B flooded paddy test; type: in vivo, Heteranthera limosa; conditions: 1000 g ai/ha, visual rating, scale 0 to 100 (0 no effect, 100 complete control), 13 to 15 days
How it was run: as §4

barnyardgrass [14] = assay: Test B flooded paddy test; type: in vivo, Echinochloa crus-galli; conditions: 1000 g ai/ha, visual rating, scale 0 to 100 (0 no effect, 100 complete control), 13 to 15 days
How it was run: as §4

[15] = Postemergence, 500 g ai/ha, 0 to 100 scale, 0 no effect, 100 complete control
[16] = Postemergence, 2000 g ai/ha, 0 to 100 scale, 0 no effect, 100 complete control
[17] = Preemergence, 2000 g ai/ha, visual rating, 0 to 100 scale (0 no effect, 100 complete control)
[18] = preemergence, 500 g ai/ha, visual injury, 0 to 100 scale (0 no effect, 100 complete control)
[19] = 125 g ai/ha, 0 = no effect, 100 = complete control, preemergence
[20] = 500 g ai/ha, visual rating 0-100, 0 no effect, 100 complete control, preemergence

## CCc1nc(C(C)(C)C)sc1C(=O)Nc1cccc(C(=O)NCC(C)C)c1 [Compound 211]
Barnyardgrass [1]; [15]
  Barnyardgrass plant response rating: 25
Barnyardgrass [1]; [16]
  Plant response rating, Barnyardgrass: 55
Barnyardgrass [1]; [17]
  Barnyardgrass plant response rating: 70
Barnyardgrass [1]; [18]
  Barnyardgrass plant response rating: 55
Large crabgrass [2]; [15]
  Crabgrass, Large plant response rating: 20
Large crabgrass [2]; [16]
  Plant response rating, Crabgrass, Large: 30
Large crabgrass [2]; [17]
  Crabgrass, Large plant response rating: 85
Large crabgrass [2]; [18]
  Crabgrass, Large plant response rating: 75
Giant foxtail [3]; [15]
  Foxtail, Giant plant response rating: 20
Giant foxtail [3]; [16]
  Plant response rating, Foxtail, Giant: 30
Giant foxtail [3]; [17]
  Foxtail, Giant plant response rating: 70
Giant foxtail [3]; [18]
  Foxtail, Giant plant response rating: 45
Morningglory [4]; [15]
  Morningglory plant response rating: 20
Morningglory [4]; [16]
  Plant response rating, Morningglory: 15
Morningglory [4]; [17]
  Morningglory plant response rating: 25
Morningglory [4]; [18]
  Morningglory plant response rating: 10
Redroot pigweed; [15]
  Pigweed plant response rating: 25
Redroot pigweed; [16]
  Plant response rating, Pigweed: 25
Redroot pigweed; [17]
  Pigweed plant response rating: 40
Redroot pigweed; [18]
  Pigweed plant response rating: 30
Velvetleaf [5]; [15]
  Velvetleaf plant response rating: 15
Velvetleaf [5]; [16]
  Plant response rating, Velvetleaf: 25
Velvetleaf [5]; [17]
  Velvetleaf plant response rating: 65
Velvetleaf [5]; [18]
  Velvetleaf plant response rating: 25
Barnyardgrass [6]; [19]
  Barnyardgrass plant response rating (0 to 100 scale): 10
Barnyardgrass [6]; [20]
  Plant response rating, Barnyardgrass: 50
Barnyardgrass [6]; 125 g ai/ha
  Barnyardgrass plant response rating: 10
Barnyardgrass [6]; 500 g ai/ha
  Barnyardgrass plant response rating: 10
Surinam grass; [19]
  Surinam Grass plant response rating (0 to 100 scale): 0
Surinam grass; [20]
  Plant response rating, Surinam Grass: 30
Surinam grass; 125 g ai/ha
  Surinam Grass plant response rating: 10
Surinam grass; 500 g ai/ha
  Surinam Grass plant response rating: 10
cocklebur; [19]
  Cocklebur plant response rating (0 to 100 scale): 0
cocklebur; [20]
  Plant response rating, Cocklebur: 0
cocklebur; 125 g ai/ha
  Cocklebur plant response rating: 30
cocklebur; 500 g ai/ha
  Cocklebur plant response rating: 60
corn; [19]
  Corn plant response rating (0 to 100 scale): 0
corn; [20]
  Plant response rating, Corn: 10
corn; 125 g ai/ha
  Corn plant response rating: 10
corn; 500 g ai/ha
  Corn plant response rating: 10
Large crabgrass [7]; [19]
  Crabgrass, Large plant response rating (0 to 100 scale): 10
Large crabgrass [7]; [20]
  Plant response rating, Crabgrass, Large: 70
Large crabgrass [7]; 125 g ai/ha
  Crabgrass, Large plant response rating: 10
Large crabgrass [7]; 500 g ai/ha
  Crabgrass, Large plant response rating: 10
Giant foxtail [8]; [19]
  Foxtail, Giant plant response rating (0 to 100 scale): 10
Giant foxtail [8]; [20]
  Plant response rating, Foxtail, Giant: 50
Giant foxtail [8]; 125 g ai/ha
  Foxtail, Giant plant response rating: 10
Giant foxtail [8]; 500 g ai/ha
  Foxtail, Giant plant response rating: 10
lambsquarters; [19]
  Lambsquarters plant response rating (0 to 100 scale): 10
lambsquarters; [20]
  Plant response rating, Lambsquarters: 80
lambsquarters; 125 g ai/ha
  Lambsquarters plant response rating: 60
lambsquarters; 500 g ai/ha
  Lambsquarters plant response rating: 70
Morningglory [9]; [19]
  Morningglory plant response rating (0 to 100 scale): 0
Morningglory [9]; [20]
  Plant response rating, Morningglory: 10
Morningglory [9]; 125 g ai/ha
  Morningglory plant response rating: 10
Morningglory [9]; 500 g ai/ha
  Morningglory plant response rating: 30
pigweed; [19]
  Pigweed plant response rating (0 to 100 scale): 0
pigweed; [20]
  Plant response rating, Pigweed: 30
pigweed; 125 g ai/ha
  Pigweed plant response rating: 10
pigweed; 500 g ai/ha
  Pigweed plant response rating: 30
Rice [10]; 125 g ai/ha, 0 = no effect, 100 = complete control
  Rice plant response rating (0 to 100 scale): 0
Rice [10]; 500 g ai/ha, visual rating 0-100, 0 no effect, 100 complete control
  Plant response rating, Rice: 10
Velvetleaf [11]; [19]
  Velvetleaf plant response rating (0 to 100 scale): 0
Velvetleaf [11]; [20]
  Plant response rating, Velvetleaf: 10
Velvetleaf [11]; 125 g ai/ha
  Velvetleaf plant response rating: 30
Velvetleaf [11]; 500 g ai/ha
  Velvetleaf plant response rating: 30
blackgrass; 125 g ai/ha
  Blackgrass plant response rating: 10
blackgrass; 500 g ai/ha
  Blackgrass plant response rating: 10
wheat; 125 g ai/ha
  Wheat plant response rating: 10
wheat; 500 g ai/ha
  Wheat plant response rating: 10
Wild oat; 125 g ai/ha
  Oat, Wild plant response rating: 10
Wild oat; 500 g ai/ha
  Oat, Wild plant response rating: 10
Rice [12]
  Rice plant response rating: 20
[13]
  Sedge, Umbrella plant response rating: 30
ducksalad
  Ducksalad plant response rating: 80
Barnyardgrass [14]
  Barnyardgrass plant response rating: 20
